From PubChem BioAssay (NCI)
Where “and” joins values, the source holds several entries; their conditions need not be identical. Equal values may be shown once.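 Results reflect a 48-hour exposure of cells in 96-well plates to compound at five concentrations. GI50 = concentration required for 50% inhibition of growth. TGI marks complete inhibition of growth.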

Assays:
Test in all cases: inhibition of tumour cell growth, NCI panel, 48 h
K-562 leukemia = system: K-562 leukemia
HCT-116 colon = system: HCT-116 colon
OVCAR-3 ovarian = system: OVCAR-3 ovarian
MDA-MB-435 = system: MDA-MB-435
HS 578T breast = system: HS 578T breast
NCI-H226 lung = system: NCI-H226 lung
TK-10 renal = system: TK-10 renal
HCC-2998 colon = system: HCC-2998 colon
U251 CNS = system: U251 CNS
A549 NSCLC = system: A549 NSCLC
RXF 393 renal = system: RXF 393 renal
UACC-62 melanoma = system: UACC-62 melanoma
COLO 205 colon = system: COLO 205 colon
A498 renal = system: A498 renal

Row | SMILES | TGI (K-562 leukemia) [µM] | TGI (HCT-116 colon) | TGI (OVCAR-3 ovarian) | TGI (MDA-MB-435) [µM] | TGI (HS 578T breast) [µM] | TGI (NCI-H226 lung) | TGI (TK-10 renal) [µM] | TGI (HCC-2998 colon) | TGI (U251 CNS) | TGI (A549 NSCLC) | TGI (RXF 393 renal) | TGI (UACC-62 melanoma) | TGI (COLO 205 colon) | TGI (A498 renal) | GI50 (A549 NSCLC) | GI50 (A498 renal) | GI50 (HCT-116 colon) [µM] | GI50 (NCI-H226 lung) [µM] | GI50 (MDA-MB-435) [µM] | GI50 (HS 578T breast) [µM]
1 | CC1CC[C@@]2(OC1)OC1CC3C4CCC5C[C@@H](OC6OC(CO)C(OC7OC(CO)C(O)C(OC8OC(CO)C(O)C(OC9OC(CO)C(O)C(O)C9O)C8O)C7OC7OC(CO)C(O)C(O)C7O)C(O)C6O)[C@H](O)C[C@]5(C)C4CC[C@]3(C)C1[C@@H]2C (some centres undefined) | > 80.5 | > 80.5 µM | > 80.5 µM | > 80.5 | > 80.5 | > 80.5 µM | > 80.5 | > 80.5 µM | > 80.5 µM | > 80.5 µM | > 80.5 µM | > 80.5 µM | > 80.5 µM | > 80.5 µM |  |  |  |  |  | 
2 | O=S(=O)(O)c1ccc(N=Nc2c(O)ccc3cc(Br)ccc23)cc1 |  | > 100 µM | > 100 µM | > 100 | > 100 |  | > 100 |  | > 100 µM | > 100 µM | > 100 µM | > 100 µM | > 100 µM | > 100 µM |  |  |  |  |  | 
3 | OC1CCOc2ccccc21 (centres undefined) | > 100 | > 100 µM | > 100 µM |  |  | > 100 µM | > 100 | > 100 µM | > 100 µM | > 100 µM | > 100 µM | > 100 µM | > 100 µM |  |  |  |  |  |  | 
4 | CNC(=O)SCC(N)C(=O)O (centres undefined) | > 100 | > 100 µM | > 100 µM |  |  | > 100 µM |  | > 100 µM | > 100 µM | > 100 µM | > 100 µM | > 100 µM | > 100 µM | > 100 µM |  |  |  |  |  | 
5 | COc1cccc(/C=N/[N-]C(N)=O)c1[O-].[Ni+2].[OH3+].c1ccc(-c2ccccn2)nc1 | > 100 | > 100 µM | > 100 µM |  |  | > 100 µM |  | > 100 µM | > 100 µM | > 100 µM | > 100 µM | > 100 µM | > 100 µM |  |  |  |  |  |  | 
6 | CC(=O)OC/C=C\Cn1nc(Br)c(=O)[nH]c1=O | 26.5 |  | 22.5 µM | 29.4 | 54 | 30.1 µM | 38.2 | 31.7 µM | 22.6 µM | 32.3 µM | 27.1 µM |  | 29.6 µM | 34.7 µM |  |  |  |  |  | 
7 | C[C@]12CC/C(=N\O)C=C1CC[C@@H]1[C@@H]2CC[C@]2(C)C(=N/O)/C(=C/c3ccc([N+](=O)[O-])cc3)C[C@@H]12 | 19.5 | 14.2 µM | 8.1 µM | 19 | 18.3 | > 100 µM | 91 |  |  | > 100 µM | > 100 µM | 14.6 µM | 53.3 µM | 45.4 µM |  |  |  |  |  | 
8 | CCOC(=O)c1c(Cl)nc2ccccc2c1N=[N+]=[N-] | > 100 | 43 µM | 39.7 µM | 47.1 | 77.8 | > 100 µM | 99.8 | > 100 µM | 62.4 µM | > 100 µM | > 100 µM |  | 36.1 µM | > 100 µM |  |  |  |  |  | 
9 | C1=C(c2ccccc2)Nc2nnnn2C1c1ccccc1 (centres undefined) | > 100 | 22.3 µM | > 100 µM | 47 | > 100 | > 100 µM | 73.9 |  | 52 µM | > 100 µM | 51.1 µM | > 100 µM | > 100 µM | > 100 µM |  |  |  |  |  | 
10 | COC(=O)c1c(O)ccc2c1c1c(n2Cc2ccc(Cl)cc2Cl)C(=O)c2ccccc2C1=O | 22.5 | 13.1 µM | 27.2 µM | 20.6 | 33.1 | 24.8 µM | 29 | 9.33 µM | 24.6 µM | 19.3 µM | 19.7 µM |  | 24.3 µM | 33.7 µM |  |  |  |  |  | 
11 | CC(=O)O[C@H]1/C(=C/c2ccncc2)C[C@H]2[C@@H]3CC=C4C[C@@H](N5CCCC5)CC[C@]4(C)[C@H]3CC[C@]12C | 12.5 | 15.3 µM | 45.9 µM | 25.8 | 33.7 | 38 µM | 29.5 | 26 µM | 24.8 µM | 26.8 µM | 20.4 µM | 27.5 µM | 25.5 µM | 30.9 µM |  |  |  |  |  | 
12 | CC1CCC2(C(=O)O)CCC3(C)C(=CCC4C5(C)CCC(O)C(C)(C)C5CCC43C)C2C1C (centres undefined) | 15.6 | 17.9 µM and > 100 µM | 18.4 µM and 26.8 µM | 75.1 | 25.2 | 18.7 µM and 37.7 µM | 43.9 | 21.8 µM and 23 µM | 19.8 µM and > 100 µM | 21.4 µM and > 100 µM | 16.4 µM and 38.3 µM | 18.8 µM and 44 µM | 26.3 µM and 28.3 µM | 23.3 µM and 45.3 µM | 10.1 µM and 26.4 µM | 7.07 µM and 22.6 µM |  |  |  | 
13 | O=C(N/N=C/c1cc(Cl)cc(Cl)c1[O-])c1ccccc1O.O=C(N/N=C/c1cc(Cl)cc(Cl)c1[O-])c1ccccc1O.[Zn+2] | 33.4 | 14.5 µM | 1.85 µM |  |  | 7.61 µM | 18.5 | 13.2 µM | 5.93 µM | 13.1 µM | 11.6 µM | 1.84 µM |  |  | 0.527 µM |  | 0.337 |  |  | 
14 | CCC(=O)c1ccc2[nH]c3c(C)c4c(=O)cc(C)[nH]c4c(C)c3c2c1 |  | > 100 µM |  | > 100 | > 100 | > 100 µM | > 100 | > 100 µM | > 100 µM | > 100 µM | > 100 µM |  | > 100 µM | > 100 µM |  |  |  |  |  | 
15 | C/C=C/C1=CC(=O)C(O)C1O (centres undefined) | 179 | 96 µM | 67.7 µM |  |  | 62.5 µM |  | 82.5 µM | 129 µM | 107 µM | 44 µM | 88.6 µM | 51.8 µM | 16.7 µM |  |  |  |  |  | 
16 | COc1ccc(/C(O)=C/c2nc3cccnc3nc2/C=C(\O)c2ccc(OC)cc2)cc1 | > 100 | 52.3 µM | 38.8 µM | 76.4 | 43.7 | 22.5 µM | 37.7 | > 100 µM | 37.7 µM | 39.6 µM |  | 44.7 µM | > 100 µM | > 100 µM |  |  |  |  |  | 
17 | COc1cc(OC)c(/C=C\c2cc(/C=C/c3c(OC)cc(OC)cc3OC)c3ccccc3[n+]2C)c(OC)c1 |  | > 28.3 µM | 6.17 µM | 6.43 | 97.9 | 23.6 µM | > 49 | 14.5 µM | > 61.4 µM | > 41.7 µM | 10.9 µM | 16.5 µM | 6.1 µM | 14 µM |  |  |  |  |  | 
18 | Cc1ccc(-c2cc(C(F)(F)F)nn2-c2ccc(S(N)(=O)=O)cc2)cc1 | > 50.6 | > 58.2 µM | 32 µM | > 56 | 58.7 | > 100 µM | > 59.2 | 33.1 µM | > 54.5 µM | > 52.6 µM | 36 µM | > 53.6 µM | 50.8 µM | 43.4 µM |  |  |  | 28.2 |  | 
19 | S=C1CC(c2ccccc2)Sc2ccccc2N1 (centres undefined) | > 100 | > 100 µM | > 100 µM | > 100 | > 100 | > 100 µM | > 100 |  | > 100 µM |  | 75.8 µM | > 100 µM | > 100 µM |  |  |  |  |  |  | 
20 | [O-][n+]1ccccc1S |  | 4.5 µM | 2.78 µM | > 100 | 56.4 | > 100 µM | 4.71 | > 100 µM | > 100 µM | 38.5 µM | 8.33 µM | 29.6 µM | 1.7 µM | > 100 µM |  |  |  |  | 3.17 | 2.91
21 | CC1(C)Cc2c(C#N)c(N)c3c(c2CO1)C(=O)OC3=O | > 100 | > 100 µM | > 100 µM |  |  | > 100 µM | > 100 | > 100 µM | > 100 µM | > 100 µM | > 100 µM | > 100 µM | > 100 µM |  |  |  |  |  |  | 
22 | CC(=O)NC(CCC(=O)C=[N+]=N)C(=O)O (centres undefined) | > 100 | > 100 µM | > 100 µM | > 100 | > 100 | > 100 µM | > 100 | > 100 µM | > 100 µM | > 100 µM | > 100 µM | > 100 µM | > 100 µM | > 100 µM |  |  |  |  |  | 
23 | Cc1[nH]nc(N)c1C(N)=O | > 100 |  |  |  |  |  | > 100 | > 100 µM |  | > 100 µM | 56.1 µM | > 100 µM | > 100 µM | > 100 µM |  |  |  |  |  | 
